From BindingDB's records for doi:10.7270/Q2J67FB5 (Nmmlsc, 2007)

biological target: T1, fMet-Leu-Phe receptor (Homo sapiens, UniProt P21462); experiment: formyl peptide receptor binders – dose response (AID 519)
T1 sequence (P21462 whole entry): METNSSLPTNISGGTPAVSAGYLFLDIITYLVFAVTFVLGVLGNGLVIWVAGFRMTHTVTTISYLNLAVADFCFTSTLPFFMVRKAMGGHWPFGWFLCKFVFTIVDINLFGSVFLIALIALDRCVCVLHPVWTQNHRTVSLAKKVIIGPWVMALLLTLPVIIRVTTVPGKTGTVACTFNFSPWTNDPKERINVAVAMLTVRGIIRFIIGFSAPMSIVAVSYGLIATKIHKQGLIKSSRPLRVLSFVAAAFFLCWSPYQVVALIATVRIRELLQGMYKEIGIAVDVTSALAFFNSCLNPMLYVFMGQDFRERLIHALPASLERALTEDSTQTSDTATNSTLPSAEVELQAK

Row | IC50 [µM] | Compound
1 | 9.7 | C=CCOc1ccc(C2C(C(=O)c3ccco3)C(=O)C(=O)N2Cc2cccnc2)cc1 (stereo unspecified) [3-(furan-2-carbonyl)-4-hydroxy-2-(4-prop-2-enoxyphenyl)-1-(pyridin-3-ylmethyl)-2H-pyrrol-5-one]
2 | > 66.7 | COCCCN1C(=O)C(=O)C(C(=O)c2ccc(OC)cc2C)C1c1cccnc1 (stereo unspecified) [(4E)-4-[(4-methoxy-2-methyl-phenyl)-oxidanyl-methylidene]-1-(3-methoxypropyl)-5-pyridin-3-yl-pyrrolidine-2,3-dione]
3 | 11.5 | O=c1c(C23CC4CC(CC(C4)C2)C3)c(O)n(-c2ccccc2)n1-c1ccccc1 [MLS000526352]
4 | 14.7 | COCCCN1C(=O)C(=O)C(C(=O)c2ccco2)C1c1ccc(Br)cc1 (stereo unspecified) [2-(4-bromophenyl)-3-(furan-2-carbonyl)-4-hydroxy-1-(3-methoxypropyl)-2H-pyrrol-5-one]
5 | > 66.7 | Cc1ccc(C(=O)C2C(=O)C(=O)N(CC(C)O)C2c2ccc(N(C)C)cc2)cc1 (stereo unspecified) [(4E)-5-[4-(dimethylamino)phenyl]-1-(2-hydroxypropyl)-4-[hydroxy(p-tolyl)methylene]pyrrolidine-2,3-quinone]
6 | 3.4 | COc1ccc(OC)c(C2C(C(=O)c3ccccc3)C(=O)C(=O)N2Cc2ccco2)c1 (stereo unspecified) [(4Z)-5-(2,5-dimethoxyphenyl)-1-(2-furanylmethyl)-4-[hydroxy(phenyl)methylidene]pyrrolidine-2,3-dione]
7 | > 66.7 | Cc1cc(N2C(=O)C(=O)C(C(=O)c3ccc(F)cc3)C2c2cccc(Br)c2)no1 (stereo unspecified) [(4E)-5-(3-bromophenyl)-4-[(4-fluorophenyl)-hydroxy-methylene]-1-(5-methylisoxazol-3-yl)pyrrolidine-2,3-quinone]
8 | > 66.7 | CSCCC1c2c(-c3cccs3)n[nH]c2OC(=N)C1C#N (stereo unspecified) [6-azanyl-4-(2-methylsulfanylethyl)-3-thiophen-2-yl-2,4-dihydropyrano[2,3-c]pyrazole-5-carbonitrile]
9 | > 66.7 | COc1cc(C2C(C(=O)c3ccco3)C(=O)C(=O)N2CCc2ccccc2)ccc1O (stereo unspecified) [3-(furan-2-carbonyl)-4-hydroxy-2-(4-hydroxy-3-methoxyphenyl)-1-(2-phenylethyl)-2H-pyrrol-5-one]
10 | > 66.7 | CCOc1cccc(C(=O)C2C(=O)C(=O)N(Cc3ccco3)C2c2ccncc2)c1 (stereo unspecified) [(4Z)-1-(2-furfuryl)-4-[hydroxy(m-phenetyl)methylene]-5-(4-pyridyl)pyrrolidine-2,3-quinone]
11 | > 66.7 | Cc1ccc(C2C(C(=O)c3ccc(Br)cc3)C(=O)C(=O)N2Cc2ccco2)o1 (stereo unspecified) [(4Z)-4-[(4-bromophenyl)-hydroxy-methylene]-1-(2-furfuryl)-5-(5-methyl-2-furyl)pyrrolidine-2,3-quinone]
12 | 57.1 | CCOc1ccc(C2C(C(=O)c3cccs3)C(=O)C(=O)N2CCCn2ccnc2)cc1 (stereo unspecified) [2-(4-ethoxyphenyl)-1-(3-imidazol-1-ylpropyl)-4-oxidanyl-3-thiophen-2-ylcarbonyl-2H-pyrrol-5-one]
13 | 31.2 | COCCCN1C(=O)C(=O)C(C(=O)c2ccco2)C1c1cccc(Br)c1 (stereo unspecified) [2-(3-bromophenyl)-3-(furan-2-carbonyl)-4-hydroxy-1-(3-methoxypropyl)-2H-pyrrol-5-one]
14 | > 66.7 | COc1ccc(C(=O)C2C(=O)C(=O)N(Cc3ccco3)C2c2ccc(OC)cc2OC)cc1 (stereo unspecified) [(4E)-5-(2,4-dimethoxyphenyl)-1-(2-furanylmethyl)-4-[hydroxy-(4-methoxyphenyl)methylidene]pyrrolidine-2,3-dione]
15 | 14.5 | COCCCN1C(=O)C(=O)C(C(=O)c2ccco2)C1c1ccccc1 (stereo unspecified) [3-(furan-2-carbonyl)-4-hydroxy-1-(3-methoxypropyl)-2-phenyl-2H-pyrrol-5-one]
16 | > 66.7 | COc1ccc(C(=O)C2C(=O)C(=O)N(CCN3CCOCC3)C2c2ccc(C)cc2)cc1 (stereo unspecified) [(4Z)-4-[(4-methoxyphenyl)-oxidanyl-methylidene]-5-(4-methylphenyl)-1-(2-morpholin-4-ylethyl)pyrrolidine-2,3-dione]
